Results on eleven compounds are retold here after patent US6620815B1, “Oxazolidinones and uses thereof” (Synaptic Pharmaceutical Corporation, priority 1997, dated 2003).

The structures appear in SMILES notation. Where a name gives a salt, the structure may show the parent alone.

The target in data set [1] is T1, cloned human α1D receptor (Homo sapiens, UniProt P25100).
T1 sequence (P25100 1-572): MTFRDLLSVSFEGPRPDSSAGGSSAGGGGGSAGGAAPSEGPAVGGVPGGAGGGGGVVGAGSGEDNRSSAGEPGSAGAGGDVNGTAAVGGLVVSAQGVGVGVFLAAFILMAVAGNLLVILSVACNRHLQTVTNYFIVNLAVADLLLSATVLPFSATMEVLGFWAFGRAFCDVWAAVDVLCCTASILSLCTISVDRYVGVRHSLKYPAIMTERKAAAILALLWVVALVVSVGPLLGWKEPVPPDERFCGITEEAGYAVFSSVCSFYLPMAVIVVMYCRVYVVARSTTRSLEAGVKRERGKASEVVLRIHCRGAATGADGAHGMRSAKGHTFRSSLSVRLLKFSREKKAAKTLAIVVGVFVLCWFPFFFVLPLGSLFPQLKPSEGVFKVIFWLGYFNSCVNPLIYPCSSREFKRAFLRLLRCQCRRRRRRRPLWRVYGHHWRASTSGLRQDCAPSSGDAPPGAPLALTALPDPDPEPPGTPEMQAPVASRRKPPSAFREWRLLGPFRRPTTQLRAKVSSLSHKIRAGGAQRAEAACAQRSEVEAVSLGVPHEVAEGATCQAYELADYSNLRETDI
Nature of the data set: Radioligand binding assay, [3H] prazosin displacement, cloned human α1D receptor. Particulars: [3H] prazosin 0.5 nM, membrane preparations of transfected LM(tk-) cells; read-out: hα1D Ki. The method, then: (§1) These cell lines were prepared by transfecting the cloned cDNA or cloned genomic DNA or constructs containing both genomic DNA and cDNA encoding the human α-adrenergic receptors as follows:
The cells were grown, in a controlled environment (37° C., 5% CO2), as monolayers in Dulbecco's modified Eagle's Medium (GIBCO, Grand Island, N.Y.) containing 25 mM glucose and supplemented with 10% bovine calf serum, 100 units/ml penicillin g, and 100 μg/ml streptomycin sulfate.
(§2) Transfected cells from culture flasks were scraped into 5 ml of 5 mM Tris-HCl, 5 mM EDTA, pH 7.5, and lysed by sonication. The cell lysates were centrifuged at 1000 rpm for 5 min at 4° C., and the supernatant was centrifuged at 30,000×g for 20 min at 4° C. The pellet was suspended in 50 mM Tris-HCl, 1 mM MgCl2, and 0.1% ascorbic acid at pH 7.5. Binding of the α1 antagonist [^3H] prazosin (0.5 nM, specific activity 76.2 Ci/mmol) to membrane preparations of LM(tk−) cells was done in a final volume of 0.25 ml and incubated at 37° C. for 20 min. Nonspecific binding was determined in the presence of 10 μM phentolamine. The reaction was stopped by filtration through GF/B filters using a cell harvester.

Data set [2] addresses T2, cloned human α1A receptor (Homo sapiens, UniProt P35348).
T2 sequence (P35348 1-466): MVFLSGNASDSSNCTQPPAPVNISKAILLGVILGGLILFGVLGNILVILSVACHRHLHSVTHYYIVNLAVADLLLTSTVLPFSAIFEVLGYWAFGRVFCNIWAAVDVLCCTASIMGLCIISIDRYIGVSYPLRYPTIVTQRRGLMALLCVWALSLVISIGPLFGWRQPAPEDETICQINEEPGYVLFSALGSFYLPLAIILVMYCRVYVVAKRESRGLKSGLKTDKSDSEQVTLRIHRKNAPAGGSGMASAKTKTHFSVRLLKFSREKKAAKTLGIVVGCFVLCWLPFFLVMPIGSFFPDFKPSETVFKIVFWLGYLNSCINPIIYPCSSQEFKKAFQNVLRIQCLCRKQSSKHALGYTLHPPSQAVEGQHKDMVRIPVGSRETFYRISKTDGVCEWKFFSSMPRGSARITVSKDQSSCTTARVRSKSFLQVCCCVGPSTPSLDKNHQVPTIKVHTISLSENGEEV
The data set is described as follows: Radioligand binding assay, [3H] prazosin displacement, cloned human α1A receptor. Particulars: [3H] prazosin 0.5 nM, membrane preparations of transfected LM(tk-) cells; read-out: hα1A Ki. As for the experimental part: as §1
The construct involved ligating three partial overlapping fragments: a 5′ 0.6 kb HincII genomic clone, a central 1.8 EcoRI hippocampal cDNA clone, and a 3′ 0.6 Kb PstI genomic clone. The hippocampal cDNA fragment overlaps with the 5′ and 3′ genomic clones so that the HincII and PstI sites at the 5′ and 3′ ends of the cDNA clone, respectively, were utilized for ligation. This full-length clone was cloned into the KpnI site of the expression vector, using the 5′ and 3′ KpnI sites of the fragment, derived from vector (i.e., pBluescript) and 3′-untranslated sequences, respectively. Stable cell lines were selected as described above.
as §2

Data set [3] deals with T3, cloned human α1B receptor (Homo sapiens, UniProt P35368).
T3 sequence (P35368 1-520): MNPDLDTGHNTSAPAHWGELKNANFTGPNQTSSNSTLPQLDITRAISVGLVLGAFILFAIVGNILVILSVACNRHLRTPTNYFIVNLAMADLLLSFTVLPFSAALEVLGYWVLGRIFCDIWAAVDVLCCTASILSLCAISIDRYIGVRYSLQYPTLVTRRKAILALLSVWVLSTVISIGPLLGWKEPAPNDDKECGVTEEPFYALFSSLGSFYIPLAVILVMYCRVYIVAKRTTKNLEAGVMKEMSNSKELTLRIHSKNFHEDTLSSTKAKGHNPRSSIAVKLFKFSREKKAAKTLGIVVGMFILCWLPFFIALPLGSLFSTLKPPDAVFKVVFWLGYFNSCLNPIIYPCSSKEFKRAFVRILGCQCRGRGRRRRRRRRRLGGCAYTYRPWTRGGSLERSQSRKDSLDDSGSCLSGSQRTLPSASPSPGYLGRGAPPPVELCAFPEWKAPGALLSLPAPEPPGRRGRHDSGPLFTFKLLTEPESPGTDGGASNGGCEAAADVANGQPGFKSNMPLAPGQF
The data set is described as follows: Radioligand binding assay, [3H] prazosin displacement, cloned human α1B receptor. The conditions noted are these: [3H] prazosin 0.5 nM, membrane preparations of transfected LM(tk-) cells; read-out: hα1B Ki. The method, then:
as §1
The construct involved ligating the full-length containing EcoRI brainstem cDNA fragment from λ ZapII into the expression vector. Stable cell lines were selected as described above.
as §2

A word on the melting point: it is the temperature of the solid-liquid transition. As usually defined, the Ki is the equilibrium dissociation constant of an inhibitor or competing ligand from its target.

Consider `Cl.N#CC1(c2ccccc2)CCN(CCCNC(=O)N2C(=O)OCC2(c2ccccc2)c2ccccc2)CC1`, for which the melting point fell in the range of 139 to 141 °C.

As for `CC(=O)OC1(c2ccccc2)CCN(CCCNC(=O)N2C(=O)OC(C)(C)C2c2ccc(F)c(F)c2)CC1.Cl` (stereo not drawn), the melting point lay within 116 to 118 °C.

Turning to `CC1(C)OC(=O)N(C(=O)NCC(F)CN2CCC(C#N)(c3ccccc3)CC2)C1c1ccc(F)c(F)c1.Cl` (stereo not drawn), the melting point is 120 to 122 °C.

`Cl.Cl.O=C1OCC(c2ccc(F)c(F)c2)N1C(=O)N1CCCC(CN2CCC(c3ccccn3)CC2)C1` (stereo not drawn): the melting point is 176 to 178 °C.

Compound `O=C(NCCCN1CCC(c2ccccc2)(c2ccco2)CC1)N1C(=O)OCC1c1ccc(F)c(F)c1` (stereo not drawn) (as salt: HCl) yielded a melting point of 149 to 151 °C.

Compound `N#CC1(c2ccccc2)CCC(N2CCN(C(=O)N3C(=O)OCC3c3ccc(F)c(F)c3)CC2)CC1` (stereo not drawn) (as salt: HCl) [Example 34, 4-{4-[4-(3,4-Difluoro-phenyl)-2-oxo-oxazolidine-3-carbonyl]-piperazin-1-yl}-1-phenyl-cyclohexanecarbonitrile] displayed a melting point of 148 to 151 °C.

As for `COc1ccccc1N1CCN(CCCCCN2C(=O)OCC2c2ccc(F)c(F)c2)CC1` (stereo not drawn) (as salt: hydrochloride) [Example 2, 4-(3,4-Difluorophenyl)-3-{5-[4-(2-methoxy-phenyl)-piperazin-1-yl]-pentyl}-oxazolidin-2-one], the melting point was 174 to 178 °C.

With `COC(=O)C1(c2ccccc2)CCN(CCNC(=O)N2C(=O)OCC2c2ccc(F)c(F)c2)CC1` (stereo not drawn) (as salt: hydrochloride) [Example 21, 4-(3,4-Difluorophenyl)-2-oxo-oxazolidine-3-carboxylic Acid{2-[4-phenylpiperidine-4-(carboxylic Acid Methyl Ester)]ethyl}amide], the melting point lay within 80 to 85 °C.

As to `COc1ccccc1N1CCN(CCCCCN2C(=O)OCC2c2ccc(F)c(F)c2)CC1` (stereo not drawn) [Example 2, 4-(3,4-Difluorophenyl)-3-{5-[4-(2-methoxy-phenyl)-piperazin-1-yl]-pentyl}-oxazolidin-2-one], the inhibition constant Ki in data set [1] came out at 11 nM; in data set [2], 0.5 nM; in data set [3], 21 nM.

For the compound `COC(=O)C1(c2ccccc2)CCN(CCNC(=O)N2C(=O)OCC2c2ccc(F)c(F)c2)CC1` (stereo not drawn) [Example 21, 4-(3,4-Difluorophenyl)-2-oxo-oxazolidine-3-carboxylic Acid{2-[4-phenylpiperidine-4-(carboxylic Acid Methyl Ester)]ethyl}amide], the Ki in data set [1] was determined as 2460 nM; in data set [2], 21 nM; in data set [3], 891 nM.

In the case of `CC1(C)OC(=O)N(C(=O)NCC(O)CN2CCC(C#N)(c3ccccc3)CC2)C1c1ccc(F)c(F)c1.Cl` (stereo not drawn) [Example 28, N3-[3-(4-Cyano-4-phenylpiperidino)-2-hydroxypropyl]-4-(3,4-difluorophenyl)-5,5-dimethyl-2-oxo-oxazolidine-3-carboxamide Hydrochloride], the melting point lay within 135 to 137 °C. For the same compound, the inhibitory constant (Ki) in data set [1] turned out to be 3660 nM. The inhibition constant Ki in data set [2] worked out at 0.7 nM. Also, the Ki in data set [3] came to 4010 nM.
